In series [1] the test system is Plasmodium falciparum. The series is described as follows: Antimalarial activity against Plasmodium falciparum in po dosed HM-IL2R gamma null mouse assessed as reduction in parasitemia administered once a day for 4 days. It counts as functional. As to conditions: 96 h.
The test system of series [2] is Plasmodium falciparum. The series is described as follows: Antimalarial activity against Plasmodium falciparum infected in A-positive human erythrocytes assessed as [3H]-hypoxanthine uptake after 24 hrs by liquid scintillation counter. It counts as functional, organism-based.
The nature of series [3]: Chromatographic hydrophobicity index of the compound at pH 2 by rapid gradient HPLC analysis. It counts as physicochemical.
The nature of series [4]: Chromatographic hydrophobicity index of the compound at pH 7.4 by rapid gradient HPLC analysis. The class given is physicochemical.
Series [5] is described as follows: Chromatographic hydrophobicity index of the compound at pH 10.5 by rapid gradient HPLC analysis. It counts as physicochemical.
The nature of series [6]: Partition coefficient, log P of the compound. It counts as physicochemical. As to conditions: octanol/water.
Series [7] is described as follows: Dissociation constant, pKa of the compound. The class given is physicochemical.
Series [8] in a line: Solubility of the compound in simulated gastric fluid at pH 1.2. The class given is physicochemical. As to conditions: simulated gi fluid.
Series [9] in a line: Solubility of the compound in fed state simulated intestinal fluid at pH 5.0. The class given is physicochemical.
Series [10] in a line: Solubility of the compound in fasted state simulated intestinal fluid at pH 6.8. It counts as physicochemical.
Series [11] in a line: Solubility of the compound in PBS at pH 7.4. It counts as physicochemical.
Series [12] has as its system Mus musculus. Put plainly: Cmax in CD1 mouse at 10 mg/kg, po. It counts as ADME, organism-based. Also noted: dose 10 mg/kg, route oral. As to conditions: in vivo.
Series [13] is described as follows: Oral bioavailability in CD1 mouse at 10 mg/kg. The class given is ADME, organism-based. As to conditions: in vivo.
Series [14] is described as follows: Volume of distribution in CD1 mouse at 0.2 mg/kg, iv. Details: dose 0.2 mg/kg, route intravenous. The class given is ADME, organism-based. As to conditions: in vivo.
The nature of series [15]: Clearance in CD1 mouse at 0.2 mg/kg, iv. The class given is ADME, organism-based. Also noted: dose 0.2 mg/kg, route intravenous. As to conditions: in vivo.
The nature of series [16]: Half life in CD1 mouse at 0.2 mg/kg, iv. It counts as ADME, organism-based. Also noted: dose 0.2 mg/kg, route intravenous. As to conditions: in vivo.
Series [17] relates to Canis familiaris. Put plainly: Cmax in Beagle dog at 2 mg/kg, po. Also noted: dose 2 mg/kg, route oral. As to conditions: in vivo. It counts as ADME, organism-based, Canis lupus familiaris.
Series [18] is described as follows: Oral bioavailability in Beagle dog at 2 mg/kg. The class given is ADME, organism-based, Canis lupus familiaris. As to conditions: in vivo.
A short description of series [19]: Volume of distribution in Beagle dog at 0.05 mg/kg, iv. The class given is ADME, organism-based, Canis lupus familiaris. Also noted: dose 0.05 mg/kg, route intravenous. As to conditions: in vivo.
Series [20] is described as follows: Clearance in Beagle dog at 0.05 mg/kg, iv. It counts as ADME, organism-based, Canis lupus familiaris. Also noted: dose 0.05 mg/kg, route intravenous. As to conditions: in vivo.
A short description of series [21]: Half life in Beagle dog at 0.05 mg/kg, iv. It counts as ADME, organism-based, Canis lupus familiaris. Also noted: dose 0.05 mg/kg, route intravenous. As to conditions: in vivo.

Values after ≈ are worked out from the molar mass of the structure shown.

With `Cc1[nH]c(CO)c(-c2ccc(Oc3ccc(OC(F)(F)F)cc3)cc2)c(=O)c1Cl`, the ED50 in [1] was determined as 0.6 mg/kg. Further, the IC50 in series [2] amounted to 2 nM. Also, the values for the CHI in series [3], in [4] and in series [5] were 2.43, 2.42 and 2.2, respectively. Also, the logP in [6] is 4.4. In [7], this compound displayed a pKa of 9.73. Moreover, the solubility in series [8] was 372 µg/mL (≈ 874 µM); in series [9] it was 2340 µg/mL (≈ 5500 µM); in [10], 690 µg/mL (≈ 1620 µM); in series [11], less than 100 µg/mL. In addition, the Cmax in series [12] stood at 1100 ng/mL; in series [17], 300 ng/mL. Besides, the bioavailability came to 50% in series [13] and 16% in [18]. Further, the Vd in [14] was 1 L/kg; in series [19], 2.8 L/kg. Moreover, the values for the clearance in series [15] and in [20] were 3 mL/min/kg and 0.8 mL/min/kg, respectively. Also, the half-life in series [16] was 3.8 h; in [21], 42 h.
In the case of `Cc1[nH]c(CN(C)C)c(Cl)c(=O)c1-c1ccc(Oc2ccc(OC(F)(F)F)cc2)cc1`, the IC50 in [2] is more than 250 nM.
For `Cc1[nH]c(CO)c(Cl)c(=O)c1-c1ccc(Oc2ccc(OC(F)(F)F)cc2)cc1`, the IC50 in [2] was found to be 130 nM.
On to `Cc1[nH]c(CO)c(Cl)c(=O)c1-c1ccc(Oc2cccc(C(F)(F)F)c2)cc1`, for which the IC50 in series [2] was 120 nM.
On to `Cc1[nH]c(CN2CCCC2)c(Cl)c(=O)c1-c1ccc(Oc2ccc(OC(F)(F)F)cc2)cc1`, for which the IC50 in series [2] is more than 250 nM.
`Cc1[nH]c(CN2CCOCC2)c(Cl)c(=O)c1-c1ccc(Oc2ccc(OC(F)(F)F)cc2)cc1`: the IC50 in [2] was more than 250 nM.
On to `Cc1[nH]c(CO)c(-c2ccc(Oc3cccc(C(F)(F)F)c3)cc2)c(=O)c1Cl`, for which the IC50 in series [2] stood at 3 nM.
Consider `Cc1[nH]c(CN(C)C)c(-c2ccc(Oc3ccc(OC(F)(F)F)cc3)cc2)c(=O)c1Cl`, for which, in series [2], the IC50 was more than 250 nM.
For `Cc1[nH]c(CN2CCCC2)c(-c2ccc(Oc3ccc(OC(F)(F)F)cc3)cc2)c(=O)c1Cl`, the IC50 in series [2] was more than 250 nM.
In the case of `Cc1[nH]c(CN2CCOCC2)c(-c2ccc(Oc3ccc(OC(F)(F)F)cc3)cc2)c(=O)c1Cl`, the IC50 in series [2] was more than 250 nM.
Turning to `Cc1[nH]c(C(=O)O)c(-c2ccc(Oc3ccc(OC(F)(F)F)cc3)cc2)c(=O)c1Cl`, the IC50 in series [2] is more than 250 nM.
As to `Cc1[nH]c(C(=O)N(C)C)c(-c2ccc(Oc3ccc(OC(F)(F)F)cc3)cc2)c(=O)c1Cl`, the IC50 in series [2] is more than 250 nM.
Take `Cc1[nH]c(C)c(-c2ccc(Oc3ccc(OC(F)(F)F)cc3)cc2)c(=O)c1Cl`: the IC50 in series [2] was 7 nM. Moreover, the values for the CHI in [3], in series [4] and in [5] were 2.75, 2.79 and 2.77, respectively. The logP in series [6] was 4.8. In addition, the pKa in series [7] was found to be 10.1. Also, the solubility is 287 µg/mL (≈ 700 µM) in series [8], 700 µg/mL (≈ 1710 µM) in series [9], 500 µg/mL (≈ 1220 µM) in series [10] and less than 100 µg/mL in series [11]. The results for the Cmax in series [12] and in [17] were 900 ng/mL and 30 ng/mL, respectively. Moreover, the bioavailability is 20% in series [13] and 4.4% in series [18]. The Vd in series [14] worked out at 1.2 L/kg; in series [19] it was 2.9 L/kg. In addition, the results for the clearance in series [15] and in series [20] were 0.6 mL/min/kg and 0.2 mL/min/kg, respectively. For the same compound, the half-life is 24.1 h in [16] and 143 h in [21].
For the compound `Cc1[nH]c(C)c(-c2ccc(Oc3cccc(C(F)(F)F)c3)cc2)c(=O)c1Cl`, in series [2], the IC50 is 3 nM.

The ED50 is the dose that gives a 50% effect, or the effect in half of the subjects. As a reminder, the IC50 is the concentration needed to halve the response being measured. What is called logP is a log measure of how a compound divides between an organic and an aqueous phase. Lower therefore signals a more hydrophilic compound. Usually pKa stands for the negative logarithm of the acid dissociation constant. As usually defined, the solubility is the concentration that dissolves in the medium under given conditions. A low value points to little dissolved substance. By Cmax is commonly meant the maximum level reached in the sampled fluid or tissue. As a reminder, the bioavailability is dose-corrected exposure relative to a reference, in per cent. As a reminder, the Vd is the apparent volume that relates the amount in the body to the concentration in plasma or blood. Low readings indicate little distribution into tissue, high ones wide distribution into tissue. The term clearance denotes the volume of plasma or blood freed of the substance per unit of time. A higher clearance goes with efficient removal. In general, half-life refers to the time needed for the level to fall by half in the phase considered. Low readings indicate rapid decline, high ones slow decline.

(Values after ChEMBL document CHEMBL1821610 (Bioorg Med Chem Lett, 2011).)
